Test results as given in patent US20250360235A1, “RADI[…] AND METHOD FOR RADIOLABELLING” (Telix Innovations SA, priority 2024, published 2025).

Test: Radiochemical purity by iTLC over time after radiolabelling
Assay type: physicochemical
Experimental: Table 1 to Table 5 show the results of various radiolabelling experiments on radiochemical purity and the chelation yield. The radiolabelling experiments in the tables are carried out as described in: • Example 1 for when the gallium-68 source is GE Liquid target generator and EZAG GalliaPharm generator; • Example 2 for when the gallium-68 source is IRE Galli Eo generator; • Example 3 for when the gallium-68 source is GE solid target generator;
However, the experiments were carried out with the amount of ascorbic acid as indicated in the Tables 1 to 5, and the activity as indicated in the Tables 1 to 5. Radiochemical purities were measured at various times (T0, T1, T4, T6) after the radiolabelled experiments have been conducted.
The kits of Example 1, Example 2 or Example 3, with amounts of ascorbic acid as set out in Table 7 were used in the experiments for the ascorbic acid bracketing matrix. Three strengths of [^68Ga]Ga-PSMA-11 will be tested, i.e. 50 mCi/ml, 7 mCi/ml and 1 mCi/ml. Radiochemical purity was determined at different time points (TO, T1, T4 or T6), as set out in Table 7.

[1] = validation batches, 25 mg ascorbic acid, 51.6-62.7 mCi, 4.56-5.88 mCi/mL, IRE Galli Eo, average of 3, T0
[2] = validation batches, 25 mg ascorbic acid, 51.6-62.7 mCi, 4.56-5.88 mCi/mL, IRE Galli Eo, average of 3, T4 (4 h)
[3] = validation batches, 25 mg ascorbic acid, 51.6-62.7 mCi, 4.56-5.88 mCi/mL, IRE Galli Eo, n=3, T0
[4] = validation batches, 25 mg ascorbic acid, 51.6-62.7 mCi, 4.56-5.88 mCi/mL, IRE Galli Eo, n=3, T4 (4 h)
[5] = validation batches, 25 mg ascorbic acid, 53.3-74.4 mCi, 5.03-6.92 mCi/mL, GE Liquid target, average of 3, T0
[6] = validation batches, 25 mg ascorbic acid, 53.3-74.4 mCi, 5.03-6.92 mCi/mL, GE Liquid target, average of 3, T4 (4 h)
[7] = validation batches, 25 mg ascorbic acid, 53.3-74.4 mCi, 5.03-6.92 mCi/mL, GE Liquid target, n=3, T0
[8] = validation batches, 25 mg ascorbic acid, 53.3-74.4 mCi, 5.03-6.92 mCi/mL, GE Liquid target, n=3, T4 (4 h)
[9] = validation batches, 25 mg ascorbic acid, 65.0-66.4 mCi, 5.74-6.15 mCi/mL, EZAG GalliaPharm, average of 3, T0
[10] = validation batches, 25 mg ascorbic acid, 65.0-66.4 mCi, 5.74-6.15 mCi/mL, EZAG GalliaPharm, average of 3, T4 (4 h)
[11] = validation batches, 25 mg ascorbic acid, 65.0-66.4 mCi, 5.74-6.15 mCi/mL, EZAG GalliaPharm, n=3, T0
[12] = validation batches, 25 mg ascorbic acid, 65.0-66.4 mCi, 5.74-6.15 mCi/mL, EZAG GalliaPharm, n=3, T4 (4 h)
[13] = validation batches, 25 mg ascorbic acid, 537-551 mCi, 50.2-51.6 mCi/mL, GE Solid Target, average of 3, T0
[14] = validation batches, 25 mg ascorbic acid, 537-551 mCi, 50.2-51.6 mCi/mL, GE Solid Target, average of 3, T6 (6 h)
[15] = validation batches, 25 mg ascorbic acid, 537-551 mCi, 50.2-51.6 mCi/mL, GE Solid Target, n=3, T0
[16] = validation batches, 25 mg ascorbic acid, 537-551 mCi, 50.2-51.6 mCi/mL, GE Solid Target, n=3, T6 (6 h)
[17] = validation batches, 25 mg ascorbic acid, 555-564 mCi, 51.1-52.7 mCi/mL, ARTMS Solid Target, average of 3, T0
[18] = validation batches, 25 mg ascorbic acid, 555-564 mCi, 51.1-52.7 mCi/mL, ARTMS Solid Target, average of 3, T6 (6 h)
[19] = validation batches, 25 mg ascorbic acid, 555-564 mCi, 51.1-52.7 mCi/mL, ARTMS Solid Target, n=3, T0
[20] = validation batches, 25 mg ascorbic acid, 555-564 mCi, 51.1-52.7 mCi/mL, ARTMS Solid Target, n=3, T6 (6 h)

O=C([O-])CN(CCN(CC(=O)[O-])Cc1cc(CCC(=O)NCCCCCC(=O)NCCCC[C@H](NC(=O)N[C@@H](CCC(=O)O)C(=O)O)C(=O)O)ccc1[O-])Cc1cc(CCC(=O)O)ccc1[O-].[68Ga+3].[OH3+] [[^68Ga]PSMA-11, gallium-68 radiolabelled Glu-urea-Lys-HBED-CC (gozetotide or PSMA-11)]
Radiochemical Purity (iTLC) Ga-68 PSMA-11 (%) (bracketing ~50 mCi/mL, 31.25 mg ascorbic acid, 500-544 mCi, 48.1-51.7 mCi/mL, GE Solid Target, average of 2, T6 (6 h)): 99% | Radiochemical Purity (iTLC) Free and Colloidal Ga-68 (%) [1]: 0% | Radiochemical Purity (iTLC) Ga-68 PSMA-11 (%) [1]: 100% | Radiochemical Purity (iTLC) Free and Colloidal Ga-68 (%) [2]: 1% | Radiochemical Purity (iTLC) Ga-68 PSMA-11 (%) [2]: 99% | Radiochemical Purity (iTLC) Free and Colloidal Ga-68 (%) [3]: C (C = all results conform to specifications) | Radiochemical Purity (iTLC) Ga-68 PSMA-11 (%) [3]: C (C = all results conform to specifications) | Radiochemical Purity (iTLC) Free and Colloidal Ga-68 (%) [4]: C (C = all results conform to specifications) | Radiochemical Purity (iTLC) Ga-68 PSMA-11 (%) [4]: C (C = all results conform to specifications) | Radiochemical Purity (iTLC) Free and Colloidal Ga-68 (%) [5]: 1% | Radiochemical Purity (iTLC) Ga-68 PSMA-11 (%) [5]: 99% | Radiochemical Purity (iTLC) Free and Colloidal Ga-68 (%) [6]: 0% | Radiochemical Purity (iTLC) Ga-68 PSMA-11 (%) [6]: 100% | Radiochemical Purity (iTLC) Free and Colloidal Ga-68 (%) [7]: C (C = all results conform to specifications) | Radiochemical Purity (iTLC) Ga-68 PSMA-11 (%) [7]: C (C = all results conform to specifications) | Radiochemical Purity (iTLC) Free and Colloidal Ga-68 (%) [8]: C (C = all results conform to specifications) | Radiochemical Purity (iTLC) Ga-68 PSMA-11 (%) [8]: C (C = all results conform to specifications) | Radiochemical Purity (iTLC) Free and Colloidal Ga-68 (%) [9]: 0% | Radiochemical Purity (iTLC) Ga-68 PSMA-11 (%) [9]: 100% | Radiochemical Purity (iTLC) Free and Colloidal Ga-68 (%) [10]: 2% | Radiochemical Purity (iTLC) Ga-68 PSMA-11 (%) [10]: 98% | Radiochemical Purity (iTLC) Free and Colloidal Ga-68 (%) [11]: C (C = all results conform to specifications) | Radiochemical Purity (iTLC) Ga-68 PSMA-11 (%) [11]: C (C = all results conform to specifications) | Radiochemical Purity (iTLC) Free and Colloidal Ga-68 (%) [12]: C (C = all results conform to specifications) | Radiochemical Purity (iTLC) Ga-68 PSMA-11 (%) [12]: C (C = all results conform to specifications) | Radiochemical Purity (iTLC) Free and Colloidal Ga-68 [13]: 0% | Radiochemical Purity (iTLC) Ga-68 PSMA-11 [13]: 100% | Radiochemical Purity (iTLC) Free and Colloidal Ga-68 [14]: 1% | Radiochemical Purity (iTLC) Ga-68 PSMA-11 [14]: 99% | Radiochemical Purity (iTLC) Free and Colloidal Ga-68 [15]: C (C = all results conform to specifications) | Radiochemical Purity (iTLC) Ga-68 PSMA-11 [15]: C (C = all results conform to specifications) | Radiochemical Purity (iTLC) Free and Colloidal Ga-68 [16]: C (C = all results conform to specifications) | Radiochemical Purity (iTLC) Ga-68 PSMA-11 [16]: C (C = all results conform to specifications) | Radiochemical Purity (iTLC) Free and Colloidal Ga-68 [17]: 1% | Radiochemical Purity (iTLC) Ga-68 PSMA-11 [17]: 99% | Radiochemical Purity (iTLC) Free and Colloidal Ga-68 [18]: 0% | Radiochemical Purity (iTLC) Ga-68 PSMA-11 [18]: 100% | Radiochemical Purity (iTLC) Free and Colloidal Ga-68 [19]: C (C = all results conform to specifications) | Radiochemical Purity (iTLC) Ga-68 PSMA-11 [19]: C (C = all results conform to specifications) | Radiochemical Purity (iTLC) Free and Colloidal Ga-68 [20]: C (C = all results conform to specifications) | Radiochemical Purity (iTLC) Ga-68 PSMA-11 [20]: C (C = all results conform to specifications)
